In patent US20080021070A1, “PYRIDINE DERIVATIVES, PREPARATION AND THERAPEUTIC APPLICATION THEREOF” (SANOFI-AVENTIS, priority 2004, published 2008) one finds melting point data, which are given here for two compounds.

Each structure is given as a SMILES string.

As a reminder, the melting point is the temperature of the solid-liquid transition.

For `Cc1nc(-c2ccc(Cl)cc2)c(-c2ccc(Cl)cc2Cl)cc1CNS(=O)(=O)c1ccc(C(F)(F)F)cc1`, the melting point was 98 °C.

`Cc1nc(-c2ccc(Cl)cc2)c(-c2ccc(Cl)cc2Cl)cc1CNC(=O)c1cc2ccccc2[nH]1` [Compound 3, N-{[-6-(4-chlorophenyl)-5-(2,4-dichlorophenyl)-2-methylpyridin-3-yl]methyl}-1H-indole-2-carboxamide]: the melting point was 135.5 °C.
